Columns and labels:
in vitro = settings: human, CC50, uninfected A549 cells, CellTiter-Glo
[1] = system: Influenza strain A549 A/WSN/33 (H1N1); experiment: microbe, parasite or virus in culture; assay type: cell-based; settings: Influenza A virus, A549, 20 h, A549 cells, influenza A/WSN/33 (H1N1), 20 hours incubation; read-out: A549_A(H1N1) EC50

SMILES | CC50 (in vitro) | EC50 [1]
O=C1c2c(O)c(=O)ccn2N2CN1CCCCOc1ccc(F)cc1[C@H]2c1cccc(F)c1 (single isomer, unassigned) [Compound 32A, (18*R)-2-fluoro-18-(3-fluorophenyl)-12-hydroxy-6,7,8,9-tetrahydro-18H-10,17-methanobenzo[b]pyrido[1,2-f][1]oxa[5,6,9]triazacyclotridecine-11,13-dione] | > 2000 nM | > 1000 nM
O=C1c2c(O)c(=O)ccn2N2CN1C/C=C\CCc1ncccc1[C@@H]2c1ccccc1 (single isomer, unassigned) [Compound 24B, (18*S,*Z)-12-hydroxy-18-phenyl-5,6,9,18-tetrahydro-10,17-methanodipyrido[1,2-b:2′,3′-k][1,2,5]triazacyclotridecine-11,13-dione] | > 1000 nM | 1530 nM
O=C1c2c(O)c(=O)ccn2N2CN1CC/C=C\CCOc1ccccc1[C@H]2c1ccccc1 (single isomer, unassigned) [Compound 65C, (2*R,*E)-15-hydroxy-2-phenyl-12,13,14,16-tetrahydro-11H-4-oxa-1(1,3)-pyrido[2,1-f][1,2,4]triazina-3(1,2)-benzenacyclodecaphan-7-ene-14,16-dione] | > 20000 nM | 7890 nM
O=C1c2c(O)c(=O)ccn2N2CN1C/C=C\COc1ccccc1C2c1ccccc1 (centres unmarked) [Compound 5] | > 2000 nM | 26 nM
O=C1c2c(O)c(=O)ccn2N2CN1C1(/C=C/COc3c(F)cccc3[C@H]2c2ccccc2)CC1 (single isomer, unassigned) [Compound 95B, (18′*R,E)-4′-fluoro-12′-hydroxy-18′-phenyl-6′H,18′H-spiro[cyclopropane-1,9′-[10,17]methanobenzo[b]pyrido[1,2-f][1]oxa[5,6,9]triazacyclotridecine]-11′,13′-dione] | > 1000 nM | 1.7 nM
O=C1c2c(O)c(=O)ccn2N2CN1CCCCOc1c(F)cccc1[C@H]2c1ccccc1 (single isomer, unassigned) [Compound 114A, (18*R)-4-fluoro-12-hydroxy-18-phenyl-6,7,8,9-tetrahydro-18H-10,17-methanobenzo[b]pyrido[1,2-f][1]oxa[5,6,9]triazacyclotridecine-11,13-dione] | > 200 nM | 7 nM
Cc1ccc2c(c1F)OC/C=C\CN1CN([C@@H]2c2ccccc2)n2ccc(=O)c(O)c2C1=O (single isomer, unassigned) [Compound 135A, (18*R,Z)-4-fluoro-12-hydroxy-3-methyl-18-phenyl-6,9-dihydro-18H-10,17-methanobenzo[b]pyrido[1,2-f][1]oxa[5,6,9]triazacyclotridecine-11,13-dione] | > 200 nM | 7.3 nM
O=C1c2c(O)c(=O)ccn2N2CN1CC/C=C/COc1cccc3c1[C@@H]2c1cccc(F)c1SC3 (single isomer, unassigned) [Compound 137A, (1*R,13*E)-25-fluoro-7-hydroxy-16-oxa-23-thia-2,3,10-triazahexacyclo[15.12.1.12,10.03,8.021,30.024,29]hentriaconta-4,7,13,17,19,21(30),24(29),25,27-nonaene-6,9-dione] | > 200 nM | > 100 nM
CS(=O)(=O)c1ccccc1[C@@H]1c2cccc(F)c2OC/C=C\CN2CN1n1ccc(=O)c(O)c1C2=O (single isomer, unassigned) [Compound 122, (18*S,*Z)-4-fluoro-12-hydroxy-18-(2-(methylsulfonyl)phenyl)-6,9-dihydro-18H-10,17-methanobenzo[b]pyrido[1,2-f][1]oxa[5,6,9]triazacyclotridecine-11,13-dione] | > 200 nM | > 100 nM
C[C@H]1N2C/C=C/COc3c(F)cccc3[C@H](c3ccccc3)N1n1ccc(=O)c(O)c1C2=O (single isomer, unassigned) [Compound 91B, (18*S,19*S,E)-4-fluoro-12-hydroxy-19-methyl-18-phenyl-6,9-dihydro-18H-10,17-methanobenzo[b]pyrido[1,2-f][1]oxa[5,6,9]triazacyclotridecine-11,13-dione] | > 1000 nM | > 500 nM
CC(C)[C@H]1/C=C/COc2c(ccc(F)c2F)[C@H](c2ccccc2)N2CN1C(=O)c1c(O)c(=O)ccn12 (single isomer, unassigned) [Compound 128BB] | > 200 nM | 3.9 nM
O=C1c2c(O)c(=O)ccn2N2CN1C[C@H]1C[C@@H](COc3cccc4c3[C@H]2c2ccccc2SC4)C1 (single isomer, unassigned) [Compound 161B] | > 100 nM | 15 nM
CN1Cc2ccccc2C(c2ccccc2)N2CN(CCC1=O)C(=O)c1c(O)c(=O)ccn12 (centres unmarked) [Compound 50, 12-hydroxy-6-methyl-18-phenyl-5,8,9,18-tetrahydro-10,17-methanobenzo[k]pyrido[1,2-b][1,2,5,9]tetraazacyclotridecine-7,11,13(6H)-trione] | > 2000 nM | > 1000 nM
O=C1c2c(O)c(=O)ccn2N2CN1CCC=CCOc1c(F)cccc1[C@@H]2c1ccccc1 (single isomer, unassigned) [Compound 84B, (19*S, E/Z)-4-fluoro-13-hydroxy-19-phenyl-9,10-dihydro-6H,19H-11,18-methanopyrido[2,1-i][1,7,10,11]benzoxatriazacyclotetradecine-12,14-dione] | > 200 nM | 5 nM
C[C@H]1/C=C\COc2cccc3c2[C@@H](c2ccccc2SC3)N2CN1C(=O)c1c(O)c(=O)ccn12 (single isomer, unassigned) [Compound 138AA, (13*S,21a*S,Z)-16-hydroxy-13-methyl-6,10,13,21a-tetrahydro-7,8-(epiprop[1]en[1]yl[3]ylidene)-14,21-methanobenzo[6,7]thiepino[4,5-c]pyrido[1,2-f][1]oxa[5,6,9]triazacyclotridecine-15,17-dione] | > 50 nM | 0.8 nM
CC[C@@H]1/C=C/COc2cc(Cl)ccc2[C@H](c2ccccc2)N2CN1C(=O)c1c(O)c(=O)ccn12 (single isomer, unassigned) [Compound 97BA] | > 1000 nM | > 500 nM
O=C1c2c(O)c(=O)ccn2N2CN1CCC/C=C\c1cccc3c1[C@H]2c1ccccc1CC3 [Compound 31B, (19bR,Z)-4-hydroxy-8,9,15,19b-tetrahydro-7H,14H-13,12-(epiprop[1]en[1]yl[3]ylidene)-6,20-methanobenzo[3,4]cyclohepta[1,2-1]pyrido[1,2-b][1,2,5]triazacyclotridecine-3,5-dione] | > 2000 nM | 4 nM
O=C1c2c(O)c(=O)ccn2N2CN1C[C@@H]1C[C@H]1COc1c(F)cccc1[C@@H]2c1ccccc1 (single isomer, unassigned) [Compound 125BA, (1a*S,8*R,17a*S)-4-fluoro-14-hydroxy-8-phenyl-1a,2,17,17a-tetrahydro-1H,8H-9,16-methanobenzo[b]cyclopropa[k]pyrido[1,2-f][1]oxa[5,6,9]triazacyclotridecine-13,15-dione] | > 200 nM | > 100 nM
C[C@@H]1/C=C/COc2cccc3c2[C@H](c2ccccc2SC3)N2CN1C(=O)c1c(O)c(=O)ccn12 (single isomer, unassigned) [Compound 138C, (9*R,17a*R,E)-12-hydroxy-9-methyl-2,6,9,17a-tetrahydro-3,4-(epiprop[1]en[1]yl[3]ylidene)-10,17-methanobenzo[6,7]thiepino[4,5-c]pyrido[1,2-f][1]oxa[5,6,9]triazacyclotridecine-11,13-dione] | > 200 nM | > 100 nM

— patent publication US11312727B1, “Macrocyclic flu endonuclease inhibitors” (Janssen BioPharma, Inc., priority 2018, dated 2022)
